For the assay, the system named is tetrabenazine-induced sedation and depression in mice. In words: Antagonism of tetrabenazine-induced depression in mice (prevention of ptosis and exploratory loss), orally at 1 hour post-drug. Type of assay: in vivo, mice (Carworth CF1 S female). The following applies: Mus musculus, oral, tetrabenazine 32 mg/kg intraperitoneally 30 minutes after drug. As for the experimental part:
(Everett, "The Dopa Response Potentiation Test and Its Use in Screening for Antidepressant Drugs", pp. 164-167 in "Antidepressant Drugs" [Proceedings of the First International Symposium], S. Garattini and M. N. G. Dukes, eds., 1967). Groups of 10 Carworth CF1 S female mice, 18-21 g each, were fasted 1.5 hours and were intubated with antagonist compounds at oral doses of 0, 5, 25, and 125 mg/kg or 0, 1, 3, 9, 27, and 81 mg/kg in 0.20 ml of 1% Methocel (methylcellulose). The mice were challenged 30 minutes later with tetrabenazine (as the methane-sulfonate), 32 mg/kg intraperitoneally (dissolved in 0.20 ml 0.05 M KCl at pH 2.0). One hour after antagonist (30 minutes after tetrabenazine), the mice were examined for signs of exploratory activity and ptosis (eyelid closure). Normal exploratory activity (relief from sedation) was recorded when a mouse lifted by the tail from a group of 10 in a testing box and placed on a stainless steel testing box lid (12.5"×8" with 0.33" mesh) either turned its head horizontally 30° in both directions or moved to the edge of the screen within 10 seconds after being placed on the screen. Relief from ptosis was recorded when exactly two seconds after placing the mouse facing the observer, lid closure was less than 50% in both eyes. For comparison, the marketed antidepressant amitriptylene was also tested, and an ED50 (effective dose in 50% of the cases) was determined. The lower the ED50, the better the antidepressant.

The mark [1] stands for this setting: read-out: ED50 For Prevention of Exploratory Loss.
[2] abbreviates: read-out: ED50 For Prevention of Ptosis.

Structures are written as SMILES. Where a name gives a salt, the structure may show the parent alone. Read-outs that look alike come from different tables or passages of the source.

By ED50 is commonly meant the dose that gives a 50% effect, or the effect in half of the subjects.

As to `COc1ccc2[nH]c3c(c2c1)CCC(NC(C)=O)C3` (centres unmarked) [Compound 2h, N-(1,3,4,9-tetrahydro-6-methoxy-2H-carbazol-2-yl)acetamide], the median effective dose (ED50) runs as follows: under setting [1], 6.5 mg/kg; under setting [2], 5.8 mg/kg.
On to `CC(=O)NC1CCc2c([nH]c3ccccc23)C1` (centres unmarked) [Compound 2a, N-(1,3,4,9-tetrahydro-2H-carbazol-2-yl)acetamide], for which the ED50 under setting [1] is 2.4 mg/kg and the ED50 under setting [2] is 1.1 mg/kg.
For `CC(=O)NC1CCc2c([nH]c3cc(OCc4ccccc4)ccc23)C1` (centres unmarked) [Compound 2p] the same measures were 6.5 mg/kg and 6.5 mg/kg.
The matching figures for `COC(=O)NC1CCC2c3ccccc3NC2C1` (centres unmarked) [Compound 1t]: 9.7 mg/kg and 5.2 mg/kg.
For the compound `CCCCCOc1ccc2c(c1)N[C@@H]1CC(NC(C)=O)CC[C@H]21` (some centres unmarked) [Compound 1L], the ED50 runs as follows: under setting [1], 2 mg/kg; under setting [2], 2 mg/kg.
For the compound `CC(=O)NC1CC[C@@H]2c3cc(C)ccc3N[C@@H]2C1` (some centres unmarked) [Compound 1e], the ED50 is, setting by setting: under setting [1], 34 mg/kg; under setting [2], 16 mg/kg.
In the case of `O=CNC1CCc2c([nH]c3ccccc23)C1` (centres unmarked) [Compound 3b, N-(1,3,4,9-tetrahydro-2H-carbazol-2-yl)formamide], the ED50 was > 125 mg/kg under setting [1] and 84 mg/kg under setting [2].
The matching figures for `CC(=O)NC1CCc2c([nH]c3cc(O)ccc23)C1` (centres unmarked) [Compound 2k, N-(1,3,4,9-tetrahydro-7-hydroxy-2H-carbazol-2-yl)acetamide]: > 125 mg/kg and > 125 mg/kg.
As for `CC(=O)NC1CC[C@@H]2c3ccccc3N[C@@H]2C1` (stereo partly drawn) [Compound 1a, N-(cis-1,3,4,4a,9,9a-hexahydro-2H-carbazol-2-yl)acetamide hydrochloride], the 50% effective dose (ED50) runs as follows: under setting [1], 2.3 mg/kg; under setting [2], 0.7 mg/kg.
In the case of `CCNC1CCC2c3ccccc3NC2C1` (centres unmarked) [Compound 1w], the ED50 is 96 mg/kg under setting [1] and 68 mg/kg under setting [2].
For `CCCCOc1ccc2c(c1)N[C@@H]1CC(NC(C)=O)CC[C@H]21` (some centres unmarked) [Compound 1k] the same measures were 0.35 mg/kg and 0.22 mg/kg.
Consider `CCOC(=O)NC1CCC2c3ccccc3NC2C1` (centres unmarked) [Compound 1s], for which the ED50 reads like this: under setting [1], 4 mg/kg; under setting [2], 4 mg/kg.
On to `CC(=O)NC1CC[C@@H]2c3cc(Br)ccc3N[C@@H]2C1` (some centres unmarked) [Compound 1d], for which the ED50 is, setting by setting: under setting [1], 3.3 mg/kg; under setting [2], 2.1 mg/kg.
On to `CCOC(=O)NC1CCc2c([nH]c3ccccc23)C1` (centres unmarked) [Compound 3e, (1,3,4,9-tetrahydro-2H-carbazol-2-yl)carbamic acid, ethyl ester], for which the 50% effective dose (ED50) is, setting by setting: under setting [1], > 81 mg/kg; under setting [2], 40 mg/kg.
The matching figures for `CCCCCOc1ccc2c3c([nH]c2c1)CC(NC(C)=O)CC3` (centres unmarked) [Compound 2n]: 4.3 mg/kg and 2.7 mg/kg.
The matching figures for `CC(=O)NC1CC[C@@H]2c3ccccc3N(C)[C@@H]2C1` (stereo partly drawn) [Compound 1o, N -(cis-1,3,4,4a,9,9a-hexahydro-9-methyl-2H-carbazol-2-yl)acetamide]: 27 mg/kg and 3.7 mg/kg.
For `NC1CCC2c3ccccc3NC2C1` (centres unmarked) [Compound 1u] the same measures were 0.75 mg/kg and 0.57 mg/kg.
Turning to `CCOC(=O)N(C)C1CCc2c([nH]c3ccccc23)C1` (centres unmarked) [Compound 3g, Methyl(1,3,4,9-tetrahydro-2H-carbazol-2-yl)carbamic acid, ethyl ester], the ED50 by setting is: under setting [1], 27 mg/kg; under setting [2], 7.8 mg/kg.
With `CCC(=O)NC1CCC2c3ccccc3NC2C1` (centres unmarked) [Compound 1q], the ED50 under setting [1] stood at 18 mg/kg and the ED50 under setting [2] was found to be 1.7 mg/kg.
The matching figures for `CCNC1CCc2c([nH]c3ccccc23)C1.Cl` (centres unmarked) [Compound 3i, N-ethyl-2,3,4,9-tetrahydro-1H-carbazol-2-amine hydrochloride]: 27 mg/kg and 27 mg/kg.
Regarding `CC(=O)NC1CC[C@@H]2c3cc(Cl)ccc3N[C@@H]2C1` (some centres unmarked) [Compound 1c], the 50% effective dose (ED50) runs as follows: under setting [1], 14 mg/kg; under setting [2], 3.3 mg/kg.
The matching figures for `CC(=O)NC1CCc2c([nH]c3c(F)cccc23)C1` (centres unmarked) [Compound 2e]: 19.7 mg/kg and 14 mg/kg.
On to `CCCCCCOc1ccc2c3c([nH]c2c1)CC(NC(C)=O)CC3` (centres unmarked) [Compound 2o], for which the ED50 is 12 mg/kg under setting [1] and 14 mg/kg under setting [2].
For `CC(=O)NC1CCC2c3ccc(OCc4ccccc4)cc3NC2C1` (centres unmarked) [Compound 1n] the same measures were 7.2 mg/kg and 6.5 mg/kg.
On to `CCCCC(=O)NC1CCc2c([nH]c3ccccc23)C1` (centres unmarked) [Compound 3d], for which the ED50 is > 81 mg/kg under setting [1] and > 81 mg/kg under setting [2].
For the compound `CN(C)CCC=C1c2ccccc2CCc2ccccc21` [amitriptyline, reference compound], the 50% effective dose (ED50) is, setting by setting: under setting [1], 2.6 mg/kg; under setting [2], 1.2 mg/kg.
As to `CC(=O)NC1CC[C@@H]2c3ccc(O)cc3N[C@@H]2C1` (some centres unmarked) [Compound 1g], the 50% effective dose (ED50) came out at 15.6 mg/kg under setting [1] and 8.1 mg/kg under setting [2].
For `CCCCOc1ccc2c3c([nH]c2c1)CC(NC(C)=O)CC3` (centres unmarked) [Compound 2j, N-(7-n-butyloxy-1,3,4,9-tetrahydro-2H-carbazol-2-yl)acetamide] the same measures were 0.57 mg/kg and 0.51 mg/kg.
The matching figures for `COc1ccc2c3c([nH]c2c1)CC(NC(C)=O)CC3` (centres unmarked) [Compound 2i, N-(1,3,4,9-tetrahydro-7-methoxy-2H-carbazol-2-yl)acetamide]: 0.9 mg/kg and 0.8 mg/kg.
For `CCOc1ccc2c(c1)N[C@@H]1CC(NC(C)=O)CC[C@H]21` (some centres unmarked) [Compound 1i], the ED50 amounted to 12.7 mg/kg under setting [1] and 8.9 mg/kg under setting [2].
On to `COC(=O)NC1CCc2c([nH]c3ccccc23)C1` (centres unmarked) [Compound 3f], for which the median effective dose (ED50) is > 81 mg/kg under setting [1] and > 81 mg/kg under setting [2].
Take `CCC(=O)NC1CCc2c([nH]c3ccccc23)C1` (centres unmarked) [Compound 3c, N-(1,3,4,9-tetrahydro-2H-carbazol-2-yl)propanamide]: the ED50 is > 81 mg/kg under setting [1] and 67 mg/kg under setting [2].
The matching figures for `CNC1CCC2c3ccccc3NC2C1` (centres unmarked) [Compound 1v]: 3 mg/kg and 2.4 mg/kg.
For `CC(=O)NC1CCc2c([nH]c3ccc(Br)cc23)C1` (centres unmarked) [Compound 2d, N-(6-bromo-1,3,4,9-tetrahydro-2H-carbazol-2-yl)acetamide] the same measures were 17.4 mg/kg and 10 mg/kg.
In the case of `CCN1c2ccccc2[C@H]2CCC(NC(C)=O)C[C@H]21` (stereo partly drawn) [Compound 1y, N-(cis-9-ethyl-1,3,4,4a,9,9a-hexahydro-2H-carbazol-2-yl) acetamide], the median effective dose (ED50) stood at 5.2 mg/kg under setting [1] and 4.7 mg/kg under setting [2].
For `CC(=O)NC1CCc2c([nH]c3ccc(F)cc23)C1` (centres unmarked) [Compound 2b, N-(6-fluoro-1,3,4,9-tetrahydro-2H-carbazol-2-yl)acetamide] the same measures were 2.4 mg/kg and 0.7 mg/kg.
As for `CC(=O)NC1CCc2c([nH]c3ccc(C)cc23)C1` (centres unmarked) [Compound 2g], the ED50 by setting is: under setting [1], 7.2 mg/kg; under setting [2], 3 mg/kg.
The matching figures for `CCOc1ccc2c3c([nH]c2c1)CC(NC(C)=O)CC3` (centres unmarked) [Compound 2L, N-(7-ethoxy-1,3,4,9-tetrahydro-2H-carbazol-2-yl)acetamide]: 2 mg/kg and 2 mg/kg.
For `CC(=O)N(C)C1CCc2c([nH]c3ccccc23)C1` (centres unmarked) [Compound 3h, N-(1,3,4,9-tetrahydro-2H-carbazol-2-yl)-N-methylacetamide] the same measures were > 125 mg/kg and > 125 mg/kg.
For `CCCCCCOc1ccc2c(c1)N[C@@H]1CC(NC(C)=O)CC[C@H]21` (some centres unmarked) [Compound 1m] the same measures were 27 mg/kg and 27 mg/kg.
With `CN(C)C1CCc2c([nH]c3ccccc23)C1` (centres unmarked) [Compound 3k], the median effective dose (ED50) reads like this: under setting [1], 39 mg/kg; under setting [2], 11.4 mg/kg.
Turning to `COc1ccc2c(c1)[C@H]1CCC(NC(C)=O)C[C@H]1N2` (some centres unmarked) [Compound 1f], the median effective dose (ED50) is, setting by setting: under setting [1], 27 mg/kg; under setting [2], 27 mg/kg.
As for `COc1ccc2c(c1)NC1CC(NC(C)=O)CCC21` (centres unmarked) [Compound 1h], the median effective dose (ED50) stood at 4.2 mg/kg under setting [1] and 2.2 mg/kg under setting [2].
The matching figures for `CC(=O)NC1CCc2c(n(C)c3ccccc23)C1` (centres unmarked) [Compound 3L, N-(1,3,4,9-tetrahydro-9-methyl-2H-carbazol-2-yl)acetamide]: 11.2 mg/kg and 9 mg/kg.
The matching figures for `CCCOc1ccc2c3c([nH]c2c1)CC(NC(C)=O)CC3` (centres unmarked) [Compound 2m]: 0.6 mg/kg and 0.6 mg/kg.
In the case of `CCCCC(=O)NC1CCC2c3ccccc3NC2C1` (centres unmarked) [Compound 1r], the ED50 is, setting by setting: under setting [1], 7.5 mg/kg; under setting [2], 6.5 mg/kg.
For the compound `CN(C)C1CCC2c3ccccc3NC2C1` (centres unmarked) [Compound 1x], the ED50 came out at 41 mg/kg under setting [1] and 37 mg/kg under setting [2].
As to `CNC1CCc2c([nH]c3ccccc23)C1.Cl` (centres unmarked) [Compound 3j, 2,3,4,9-Tetrahydro-N-methyl-1H-carbazol-2-amine hydrochloride], the ED50 under setting [1] was 32 mg/kg and the ED50 under setting [2] was determined as 12 mg/kg.
The matching figures for `O=CNC1CCC2c3ccccc3NC2C1` (centres unmarked) [Compound 1p]: 21 mg/kg and 21 mg/kg.

Source of the values: patent publication US4343812A, “Antidepressant 2-amino-and-2-(substituted amino)-cis-hexahydro-carbazoles, compositions and use” (E. I. Du Pont de Nemours and Company, priority 1980, dated 1982).
